Results on 13 compounds are retold here after patent US20140073801A1, “PYRROLIDINE DERIVATIVES AS SELECTIVE GLYCOSIDASE INHIBITORS AND USES THEREOF” (Summit Corporation Plc, priority 2011, published 2014).

Test [1] concerns the target T1, human β-hexosaminidase [human placenta] (HexA/B).
T1 construct: other: human β-hexosaminidase, human placenta; room temperature, thirty minutes
The experiment in a line: Determination of IC50 values for inhibition of human β-hexosaminidase. The class given is biochemical. As to conditions: human β-hexosaminidase, human placenta; room temperature, thirty minutes. The essentials:
(§1)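 Inhibitor titrated from 300 μM to 0.003 μM or 100 μM to 0.001 μM. IC50 values come from curve fits, and selectivity is IC50(β-hexosaminidase)/IC50(human OGA).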

Test [2] deals with human β-hexosaminidase [human placenta] (HexA/B). Described as above. In kind it is biochemical. To be noted: ratio. The essentials:
as §1

Test [3] concerns the target T2, human OGA (Homo sapiens, UniProt O60502).
T2 construct: made in house
T2 sequence (O60502 1-916): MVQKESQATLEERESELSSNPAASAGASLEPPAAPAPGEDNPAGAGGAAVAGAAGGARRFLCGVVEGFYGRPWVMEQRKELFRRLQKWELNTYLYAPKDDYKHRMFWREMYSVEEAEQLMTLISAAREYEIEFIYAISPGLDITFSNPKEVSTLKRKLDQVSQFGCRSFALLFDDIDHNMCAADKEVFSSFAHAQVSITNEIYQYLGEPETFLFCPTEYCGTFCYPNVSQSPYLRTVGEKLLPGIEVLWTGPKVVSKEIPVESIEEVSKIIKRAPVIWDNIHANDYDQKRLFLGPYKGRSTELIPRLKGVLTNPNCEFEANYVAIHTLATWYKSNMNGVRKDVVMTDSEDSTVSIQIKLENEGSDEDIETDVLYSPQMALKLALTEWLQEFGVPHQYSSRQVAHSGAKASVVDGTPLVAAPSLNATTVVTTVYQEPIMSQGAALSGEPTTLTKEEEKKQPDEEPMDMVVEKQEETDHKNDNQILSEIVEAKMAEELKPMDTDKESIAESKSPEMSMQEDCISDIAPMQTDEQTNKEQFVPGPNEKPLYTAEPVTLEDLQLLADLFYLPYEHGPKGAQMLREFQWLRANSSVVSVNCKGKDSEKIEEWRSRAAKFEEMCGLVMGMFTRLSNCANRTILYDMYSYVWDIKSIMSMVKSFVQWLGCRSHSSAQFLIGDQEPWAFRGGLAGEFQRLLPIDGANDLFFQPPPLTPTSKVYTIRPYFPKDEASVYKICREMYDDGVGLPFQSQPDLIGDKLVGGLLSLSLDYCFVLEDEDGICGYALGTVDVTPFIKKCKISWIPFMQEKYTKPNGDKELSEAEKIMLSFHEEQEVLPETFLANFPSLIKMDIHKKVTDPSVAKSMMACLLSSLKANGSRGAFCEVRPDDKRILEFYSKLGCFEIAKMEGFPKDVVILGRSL
The experiment in a line: Determination of IC50 values for inhibition of human OGA. The class given is biochemical. The protocol: Inhibitors identified from the screen described in Example 1 were evaluated for IC50 using a procedure adapted from Biochem. J. 2009, 420, 221-227. IC50 determination was carried out using a range of inhibitor concentrations from 300 μM to 0.003 μM or 100 μM to 0.001 μM. IC50 values were calculated using XLFit 4.

In the next test the target is T3, human OGA (hOGA) (Homo sapiens, UniProt O60502).
T3 construct: made in house
T3 sequence (O60502 1-916): T2 sequence (O60502 1-916)
The experiment in a line: Screening of inhibitor library against human OGA (single point, triplicate). In kind it is biochemical. As to conditions: 100 μM inhibitor concentration. The protocol:
Expressed and purified human OGA (hOGA) was screened against a library of compounds (compounds stored in 100% DMSO at a concentration of 10 mM) according to a procedure modified from that detailed in Biochem. J. 2009, 420, 221-227 and using the reaction reagents set out in the Table (below). The modification to the published protocol was that an emission wavelength of 450 nm was used rather than […]. Assays were run at singlepoint in triplicate. Inhibitors for further evaluation were selected based on an average observed inhibition greater than 50%.

Test [4] deals with T2, human OGA. The experiment in a line: Determination of Ki values for inhibition of human OGA (4MU-GlcNAc substrate). In kind it is biochemical. To be noted: 2 nM human OGA, McIlvaine buffer pH 7.4, one hour. The protocol:
Enzymatic reactions were carried out in McIlvaine buffer (0.2M Na2PO4, 0.1M citric acid; pH 7.4) using 2 nM human OGA and 4MU-GlcNAc as substrate in the presence of inhibitor. For the Ki of AXX inhibitor concentrations were 0, 20, 40, 80, 160 and 320 nM [for the Ki determination of other compounds either the same concentrations or similar concentrations were used] and 4MU-GlcNAc concentrations were 50, 100, 200, 400, 800, 1600, and 3200 μM. Reactions were left for one hour. […] Modes of inhibition were determined by Lineweaver-Burke analysis and Ki values were determined using GraphPad 5 Prism non-linear regression analysis.

In test [5] the test system is O-GlcNAc modified proteins in PC-12 cells or SH-SY5Y cells. The experiment in a line: Western blot analyses of O-GlcNAc modified proteins in cells. The class given is cell-based. As to conditions: for EC50: western blot, cells dosed 4 hours at 37° C., cell line not given. The protocol: PC-12 cells or SH-SY5Y cells were dosed with the test compound or vehicle control at 37° C. for 4 hours. Once the incubation was completed the media was removed and cells were lysed. Extracted protein was then used for Western blot analysis using standard molecular biology techniques. The resulting membrane was probed with antibodies specific for tau phosphorylation sites (pSer396, pSer422, pThr231, pSer262) or with antibodies specific for O-GlcNAcylation sites (RL-2 or CTD110.6). The primary antibodies were visualised using appropriate secondary conjugated with the fluorophores Alexa 532 or Alexa 488. Actin was visualised using a FITC conjugated primary antibody. Relative quantification was measured in relation to the actin signal using Image lab software (BRL). Marked increases in O-GlcNAcylated proteins within the cells were observed as compared to controls when cells were dosed with test compound.

For `CCCCCCCCCN1[C@H](CC(=O)NCCCC)[C@H](O)[C@H](O)[C@H]1CO` [Compound A001, N-butyl-2-((2R,3S,4R,5R)-3,4-dihydroxy-5-(hydroxymethyl)-1-nonylpyrrolidin-2-yl)acetamide], the half-inhibitory concentration (IC50) was greater than 300000 nM in test [1] and 58000 nM against human OGA [3]. Moreover, the “Selectivity: IC50(human β-hexosaminidase)/IC50(Human OGA)” value in test [2] is greater than 5. The compound also showed an inhibition at 100 µM against human OGA (hOGA) of 89.6%.

With `CCCCNC(=O)C[C@H]1N[C@H](CO)[C@@H](O)[C@H]1O` [Compound A002, N-butyl-2-((2R,3S,4R,5R)-3,4-dihydroxy-5-(hydroxymethyl)pyrrolidin-2-yl)acetamide], the IC50 in test [1] is greater than 300000 nM; against human OGA [3], 75000 nM. Besides, in test [2], the “Selectivity: IC50(human β-hexosaminidase)/IC50(Human OGA)” value is reported as greater than 4. At 100 µM the inhibition on human OGA (hOGA) was 52.8%.

With `CCCCNC(=O)C[C@@H]1[C@H](O)[C@H](O)[C@@H](CO)N1CCCCCCCCCO` [Compound A003, N-butyl-2-((2R,3S,4R,5R)-3,4-dihydroxy-5-(hydroxymethyl)-1-(9-hydroxynonyl)pyrrolidin-2-yl)acetamide], the half-maximal inhibitory concentration (IC50) in test [1] was greater than 300000 nM; at human OGA [3], 74600 nM. Besides, the “Selectivity: IC50(human β-hexosaminidase)/IC50(Human OGA)” value in test [2] was greater than 4. Further, testing at 100 µM against human OGA (hOGA) gave an inhibition of 82.8%.

Turning to `CCCCCCCCCN1[C@H](CC(=O)NCCC)[C@H](O)[C@H](O)[C@H]1CO` [Compound A008, 2-((2R,3S,4R,5R)-3,4-dihydroxy-5-(hydroxymethyl)-1-nonylpyrrolidin-2-yl)-N-propylacetamide], the results for the IC50 (in test [1]; on human OGA [3]) were greater than 300000 nM and 12 nM, respectively. Also, in test [2], the “Selectivity: IC50(human β-hexosaminidase)/IC50(Human OGA)” value is greater than 25000. For the same compound, the Ki on human OGA [4] turned out to be 55 nM.

Take `CCCCCCN1[C@H](CC(=O)NC)[C@H](O)[C@H](O)[C@H]1CO` [Compound A012, 2-((2R,3S,4R,5R)-1-hexyl-3,4-dihydroxy-5-(hydroxymethyl)pyrrolidin-2-yl)-N-methylacetamide]: the IC50 in test [1] is greater than 300000 nM; on human OGA [3], 49 nM. Also, in test [2], the “Selectivity: IC50(human β-hexosaminidase)/IC50(Human OGA)” value was greater than 6085. Also, the “cellular levels of O-GlcNAc modified proteins relative to vehicle (FIG. 2)” value in test [5] (SH-SY5Y cells, 4 hours) is given as “increase”. For the same compound, the “cellular levels of O-GlcNAc modified proteins relative to vehicle (FIG. 1)” value in test [5] (SH-SY5Y cells, 4 hours, varying concentrations) is given as “increase”. The midpoint of the response in test [5], the EC50, lay at 656 nM. The compound also yielded a Ki on human OGA [4] of 70 nM.

Regarding `CNC(=O)C[C@@H]1[C@H](O)[C@H](O)[C@@H](CO)N1CCCc1ccccc1` [Compound A016, 2-((2R,3S,4R,5R)-3,4-dihydroxy-5-(hydroxymethyl)-1-(3-phenylpropyl)pyrrolidin-2-yl)-N-methylacetamide], the IC50 in test [1] is 54000 nM; at human OGA [3], less than 3 nM. Besides, the “Selectivity: IC50(human β-hexosaminidase)/IC50(Human OGA)” value in test [2] is given as greater than 18000. The “cellular levels of O-GlcNAc modified proteins relative to vehicle (FIG. 2)” value in test [5] (SH-SY5Y cells, 4 hours) is “increase”. It took 255 nM to reach a half-maximal effect in test [5] (EC50). Further, the affinity at human OGA [4], expressed as Ki, was 11 nM.

`CNC(=O)C[C@@H]1[C@H](O)[C@H](O)[C@@H](CO)N1CCCCC(C)C` [Compound A021, 2-((2R,3S,4R,5R)-3,4-dihydroxy-5-(hydroxymethyl)-1-(5-methylhexyl)pyrrolidin-2-yl)-N-methylacetamide]: the IC50 in test [1] is greater than 300000 nM; against human OGA [3], 8 nM. In addition, the “Selectivity: IC50(human β-hexosaminidase)/IC50(Human OGA)” value in test [2] is on record as greater than 37037. Also, the “cellular levels of O-GlcNAc modified proteins relative to vehicle (FIG. 2)” value in test [5] (SH-SY5Y cells, 4 hours) is “increase”. In test [5], this compound showed an EC50 of 604 nM. The compound also yielded a Ki at human OGA [4] of 41 nM.

Turning to `CCCNC(=O)C[C@@H]1[C@H](O)[C@H](O)[C@@H](CO)N1CCCCc1ccccc1` [Compound A022, 2-((2R,3S,4R,5R)-3,4-dihydroxy-5-(hydroxymethyl)-1-(4-phenylbutyl)pyrrolidin-2-yl)-N-propylacetamide], the IC50 in test [1] was greater than 300000 nM; at human OGA [3], 11 nM. Moreover, the “Selectivity: IC50(human β-hexosaminidase)/IC50(Human OGA)” value in test [2] was greater than 28571. This compound also yielded an EC50 in test [5] of 1230 nM. Further, the Ki at human OGA [4] is 72 nM.

Turning to `CCNC(=O)C[C@@H]1[C@@H](O)[C@H](O)[C@@H](CO)N1CCCc1ccc(OC)cc1` [Compound A060, 2-((2R,3R,4R,5R)-3,4-dihydroxy-5-(hydroxymethyl)-1-(3-(4-methoxyphenyl)propyl)pyrrolidin-2-yl)-N-ethylacetamide], the figures for the IC50 (in test [1]; on human OGA [3]) were greater than 300000 nM and 11 nM, respectively. Further, the “Selectivity: IC50(human β-hexosaminidase)/IC50(Human OGA)” value in test [2] was greater than 27272. This compound also registered an EC50 in test [5] of 263 nM. Besides, on human OGA [4], affinity was put at a Ki of 167 nM.

For `CCNC(=O)C[C@@H]1[C@@H](O)[C@H](O)[C@@H](CO)N1CCCc1ccc(Cl)cc1` [Compound A063, 2-((2R,3R,4R,5R)-1-(3-(4-chlorophenyl)propyl)-3,4-dihydroxy-5-(hydroxymethyl)pyrrolidin-2-yl)-N-ethylacetamide], the figures for the IC50 (in test [1]; against human OGA [3]) were greater than 300000 nM and 36 nM, respectively. For the same compound, in test [2], the “Selectivity: IC50(human β-hexosaminidase)/IC50(Human OGA)” value is reported as greater than 8333. This compound registered an EC50 in test [5] of 1010 nM.

With `CNC(=O)C[C@@H]1[C@H](O)[C@H](O)[C@@H](CO)N1CCCCCNS(=O)(=O)c1ccc(C)cc1` [Compound A064, 2-((2R,3S,4R,5R)-3,4-dihydroxy-5-(hydroxymethyl)-1-(5-(4-methylphenylsulfonamido)pentyl)pyrrolidin-2-yl)-N-methylacetamide], the IC50 in test [1] was 10100 nM; against human OGA [3], less than 3 nM. In addition, the “Selectivity: IC50(human β-hexosaminidase)/IC50(Human OGA)” value in test [2] is recorded as greater than 3366. Moreover, in test [5], it took 127 nM to reach a half-maximal effect (EC50).

Consider `CNC(=O)C[C@@H]1[C@H](O)[C@H](O)[C@@H](CO)N1CCCCCNS(=O)(=O)c1ccc(-c2ccccc2)cc1` [Compound A066, 2-((2R,3S,4R,5R)-1-(5-([1,1′-biphenyl]-4-ylsulfonamido)pentyl)-3,4-dihydroxy-5-(hydroxymethyl)pyrrolidin-2-yl)-N-methylacetamide], for which the IC50 is 10900 nM in test [1] and less than 3 nM at human OGA [3]. For the same compound, in test [2], the “Selectivity: IC50(human β-hexosaminidase)/IC50(Human OGA)” value is listed as greater than 3633. In test [5], a half-maximal response (EC50) required 20 nM. Moreover, the affinity at human OGA [4] corresponds to a Ki of 3 nM.

As for `CCNC(=O)C[C@@H]1[C@@H](O)[C@H](O)[C@@H](CO)N1CCC(c1ccccc1)c1ccccc1` [Compound A068, 2-((2R,3R,4R,5R)-1-(3,3-diphenylpropyl)-3,4-dihydroxy-5-(hydroxymethyl)pyrrolidin-2-yl)-N-ethylacetamide], the half-maximal inhibitory concentration (IC50) turned out to be 242000 nM in test [1] and 3.7 nM against human OGA [3]. The “Selectivity: IC50(human β-hexosaminidase)/IC50(Human OGA)” value in test [2] is reported as greater than 65405. The same compound registered a Ki at human OGA [4] of 64 nM.
